Assay results reported in patent US20230310453A1, “METHODS FOR EXTRACTING NEUTROPHIL SERINE PROTEASES AND TREATING DIPEPTIDYL PEPTIDASE 1-MEDIATED CONDITIONS” (INSMED, INC., priority 2020, published 2023).

How the values were obtained:
Type in all cases: in vivo, human
[1] = system: patients with non-cystic fibrosis bronchiectasis (NCFBE); assay: Phase 2 randomized, double-blind, placebo-controlled trial: pulmonary exacerbations; settings: for reduction in the frequency of pulmonary exacerbations as compared to placebo: once daily 24 weeks; for time to the first pulmonary exacerbation (primary end point): vs placebo
Excerpt: We have conducted a phase 2, randomized, double-blind, placebo-controlled trial to assess the efficacy, safety and tolerability, and pharmacokinetics of (2S)—N-{(1S)-1-cyano-2-[4-(3-methyl-2-oxo-2,3-dihydro-1,3-benzoxazol-5-yl) phenyl] ethyl}-1,4-oxazepane-2-carboxamide (brensocatib) administered once daily for 24 weeks in patients with non-cystic fibrosis bronchiectasis (NCFBE). See the details and results of the trial in N Engl J Med. 383(22):2127-2137 (2020); incorporated herein by reference in its entirety for all purposes.
In the trial, subjects were randomized in a 1:1:1 ratio to 3 treatment arms to receive either (i) 10 mg brensocatib once daily; (ii) 25 mg brensocatib once daily, or (iii) matching placebo once daily. Following a screening visit (Visit 1) and a screening period of up to 6 weeks, subjects were randomized at Visit 2 (Day 1, “Baseline”) and returned thereafter for study visits at 2 weeks (Visit 3), 4 weeks (Visit 4), 8 weeks (Visit 5), 12 weeks (Visit 6), 16 weeks (Visit 7), 20 weeks (Visit 8), 24 weeks (Visit 9, end of treatment) and 28 weeks (Visit 10, end of study). During each visit, assessments and procedures were performed, including collection of blood and sputum samples at baseline and weeks 2, 4, 12, 24, and 28 for biomarker assessment. Study treatment occurred between Visits 2-9. The time to the first pulmonary exacerbation (primary end point), the rate of pulmonary exacerbations (secondary end point), change in concentration of active NE in sputum, and safety were assessed. […] Specifically, patients treated with brensocatib experienced a 36% reduction in the 10 mg arm (p=0.04) and a 25% reduction in the 25 mg arm (p=0.17).

[2] = system: active NE; assay: Active NE concentration in patients' sputum samples; settings: for % reduction from baseline in sputum samples, active NE: week 4, reduction in geometric mean
Procedure: (§1) In the NE kinetic assay, an exogenous peptide substrate with high specificity for NE (shown in Table 1A) was cleaved by NE present in the sample, generating a fluorophore reaction product 7-amino 4-methyl coumarin (AMC). The initial rate of this reaction, which is proportional to the amount of active NE in the sample, was measured in relative fluorescence units (RFU) and converted to the concentration of active NE in the sample. Specifically, standards were created via serial dilution of Human NE Stock Protein (Sigma, Cat. No E8140-1UN, see Table 1A) in a standard diluent, which matched the ratio of lysis buffer to Enzyme Buffer (sample diluent) of the sample dilutions on a multi-well plate. Sample dilutions were created on the plate using Enzyme Buffer as the diluent. A 1:25 dilution of either DMSO or NE inhibitor (Abcam, Cat. No ab142154, final concentration 80 μM) in Assay Buffer was added to all wells and allowed to incubate at 37° C. for 15 minutes. […] The plate was immediately read at 350/450 nm (Excitation/Emission) post substrate addition in kinetic mode every 5 minutes for up to 3 hours (minimum 30 minutes) at 37° C. on a BioTek Gen5 Plate Reader. The raw data of the readings were exported into an Excel file for data analysis described below.
(§2) In the trial, subjects were randomized in a 1:1:1 ratio to 3 treatment arms to receive either (i) 10 mg brensocatib once daily; (ii) 25 mg brensocatib once daily, or (iii) matching placebo once daily. […] The time to the first pulmonary exacerbation (primary end point), the rate of pulmonary exacerbations (secondary end point), change in concentration of active NE in sputum, and safety were assessed. […]
(§3) In this example, we further determined the changes from baseline in the concentrations of active PR3 and CatG in the same sputum samples obtained from the patients in the three treatment arms using the kinetic PR3 and CatG assays described in the previous examples, and compared the changes with those of active NE. […]

[3] = system: active PR3; assay: Active PR3 concentration in patients' sputum samples (kinetic PR3 assay); settings: for % reduction from baseline in sputum samples, active PR3: week 4, reduction in geometric mean
Procedure: Except for using an exogenous peptide substrate specific for PR3 instead of NE, the PR3 kinetic assay is based on the same principle as the NE kinetic assay described above. Cleavage of PR3 Substrate by PR3 present in the sample generated the fluorophore reaction product 2-Aminobenzoyl or Anthraniloyl (Abz). The initial rate of this reaction, which is proportional to the amount of active PR3 in the sample, was measured in RFU and converted to the concentration of active PR3 in the sample. Specifically, standards were created via serial dilution of Human PR3 Stock Protein (Sigma, Cat. No SRP6309-25UG, see Table 1A) in a standard diluent which matched the ratio of lysis buffer to Enzyme Buffer (sample diluent) of the sample dilutions on a multi-well plate. Sample dilutions were created on the plate using Enzyme Buffer as the diluent. A 1:20 dilution of either DMSO or PR3 inhibitor (Abcam, Cat. No ab146184, final concentration 500 μM) in Assay Buffer was added to all wells and allowed to incubate at 37° C. for 15 minutes. […] The plate was immediately read at 340/430 nm (Excitation/Emission) post substrate addition in kinetic mode every 5 minutes for up to 3 hours (minimum 30 minutes) at 37° C. on a BioTek Gen5 Plate Reader. The raw data of the readings were exported into an Excel file for data analysis described below.
as §2, §3

[4] = system: active CatG; assay: Active CatG concentration in patients' sputum samples (kinetic CatG assay); settings: for % reduction from baseline in sputum samples, active CatG: week 4, reduction in geometric mean
Procedure: CatG activity was measured in an enzymatic assay using an exogenous peptide substrate. Cleavage of the substrate generated the chromophore or fluorophore reaction product, p-Nitroaniline (pNA), 6-Carboxytetramethylrhodamine (6-TAMRA) or 7-Methoxycoumarin-4-acetic acid (MCA). The initial rate of this reaction is proportional to the amount of active CatG in a sample and was measured in absorbance (ABS) or fluorescence (RFU), depending on the substrate, and converted to the concentration of active CatG in the sample. Specifically, standards were created via serial dilution of stock human CatG protein (Sigma, Cat. No C4428-.25UN) in a standard diluent which matched the ratio of lysis buffer to Enzyme Buffer (sample diluent) of the sample dilutions on plate. Sample dilutions were created on the plate using Enzyme Buffer as the diluent and/or run neat. […] The plate was immediately read at appropriate wavelength according to Table 1B post substrate addition in kinetic mode every 5 minutes for 1.5 hours at 37° C. on a BioTek's Synergy Neo or BioTek's Synergy HIM plate reader with Gen5 Software. […]
as §2
as §3, with “NE. Additionally, we extracted NE and PR3 from the white blood cells (WBCs) derived from the patients' blood samples, and determined the changes from baseline in the concentrations of active NE and PR3 in the WBC samples using the methods described in Example 7.” for “NE.”

[5] = system: active NE; assay: Active NE concentration in patients' WBC samples (kinetic NE assay)
Procedure: as §1
(§4) After NE and PR3 are extracted from a WBC pellet using a multi-step repeated pellet lysis process, total NE and PR3 activity in cell lysates may be determined by individually assaying each cell lysate from each lysis step for the enzyme activity and calculating the total activity. Alternatively, the total activity may be determined by pooling the cell lysates for a single NE or PR3 activity assay. […]
as §2

[6] = system: active PR3; assay: Active PR3 concentration in patients' WBC samples (kinetic PR3 assay); settings: for % reduction from baseline in WBC samples, active PR3: week 4, reduction in arithmetic mean
Procedure: Except for using an exogenous peptide substrate specific for PR3 instead of NE, the PR3 kinetic assay is based on the same principle as the NE kinetic assay described above. Cleavage of PR3 Substrate by PR3 present in the sample generated the fluorophore reaction product 2-Aminobenzoyl or Anthraniloyl (Abz). The initial rate of this reaction, which is proportional to the amount of active PR3 in the sample, was measured in RFU and converted to the concentration of active PR3 in the sample. Specifically, standards were created via serial dilution of Human PR3 Stock Protein (Sigma, Cat. No SRP6309-25UG, see Table 1A) in a standard diluent which matched the ratio of lysis buffer to Enzyme Buffer (sample diluent) of the sample dilutions on a multi-well plate. Sample dilutions were created on the plate using Enzyme Buffer as the diluent. A 1:20 dilution of either DMSO or PR3 inhibitor (Abcam, Cat. No ab146184, final concentration 500 μM) in Assay Buffer was added to all wells and allowed to incubate at 37° C. for 15 minutes. Addition of DMSO was used as a placeholder in case future testing required addition of inhibitors for subtraction of nonspecific activity-induced cleavage. Following incubation, PR3 Substrate (Abz-VADCADQ-Lys(DNP), final concentration 100 μM) diluted in Assay Buffer was added to the sample and control wells in that order, and briefly mixed via pipetting 2-3 times. The plate was immediately read at 340/430 nm (Excitation/Emission) post substrate addition in kinetic mode every 5 minutes for up to 3 hours (minimum 30 minutes) at 37° C. on a BioTek Gen5 Plate Reader. The raw data of the readings were exported into an Excel file for data analysis described below.
as §4

Cn1c(=O)oc2ccc(-c3ccc(C[C@@H](C#N)NC(=O)[C@@H]4CNCCCO4)cc3)cc21 [brensocatib, (2S)—N-{(1S)-1-cyano-2-[4-(3-methyl-2-oxo-2,3-dihydro-1,3-benzoxazol-5-yl)phenyl]ethyl}-1,4-oxazepane-2-carboxamide]
reduction in the frequency of pulmonary exacerbations as compared to placebo ([1]; 10 mg arm, p=0.04): 36%
time to the first pulmonary exacerbation (primary end point) ([1]; 10 mg once daily for 24 weeks, p=0.03): prolonged the time to the first exacerbation
reduction in the frequency of pulmonary exacerbations as compared to placebo ([1]; 25 mg arm, p=0.17): 25%
time to the first pulmonary exacerbation (primary end point) ([1]; 25 mg once daily for 24 weeks, p=0.04): prolonged the time to the first exacerbation
change from baseline in sputum concentration of active NE (time course) ([2]; 10 mg and 25 mg arms, FIG. 13A): reduced by brensocatib treatment by week 4 in a dose-dependent manner
% reduction from baseline in sputum samples, active NE ([2]; 10 mg daily): 86%
% reduction from baseline in sputum samples, active NE ([2]; 25 mg daily): 91%
change from baseline in sputum concentration of active PR3 (time course) ([3]; 10 mg and 25 mg arms, FIG. 13B): reduced by brensocatib treatment by week 4 in a dose-dependent manner
% reduction from baseline in sputum samples, active PR3 ([3]; 10 mg daily): 21%
% reduction from baseline in sputum samples, active PR3 ([3]; 25 mg daily): 53%
change from baseline in sputum concentration of active CatG (time course) ([4]; 10 mg and 25 mg arms, FIG. 13C): reduced by brensocatib treatment by week 4 in a dose-dependent manner
% reduction from baseline in sputum samples, active CatG ([4]; 10 mg daily): 90%
% reduction from baseline in sputum samples, active CatG ([4]; 25 mg daily): 93%
change from baseline in concentration of active NE in WBC samples (time course) ([5]; 10 mg and 25 mg arms, 24-week treatment, FIG. 14A): reduced by brensocatib treatment by week 4 in a dose-dependent manner
% reduction from baseline in WBC samples, active NE ([5]; 10 mg daily, week 4, reduction in arithmetic mean): 19%
time for reduced active NE concentrations in WBC samples to recover to baseline levels after the end of the treatment period ([5]; after 24-week treatment, FIG. 14A): about 4 weeks
change from baseline in concentration of active PR3 in WBC samples (time course) ([6]; 10 mg and 25 mg arms, FIG. 14B): reduced by brensocatib treatment to a lesser extent than the active NE concentrations
% reduction from baseline in WBC samples, active PR3 ([6]; 10 mg daily): No reduction
% reduction from baseline in WBC samples, active PR3 ([6]; 25 mg daily): 34%
